Measurements as given in patent publication US9416141B2 (University of Washington through its Center for …, priority 2012, dated 2016).
Where a name gives a salt, the structure may show the parent alone.

Tested on: hair cells
Test: Hair cell toxicity assay in zebrafish (neomycin-induced hair cell death, DASPEI staining of neuromasts)
Assay type: in vivo
Conditions: Danio rerio; for Emax at 25 µM: maximum observed @ 25 μM test compound; for EC50: zebrafish larvae 5-7 dpf, 1 h pre-treatment, then 200 micromolar neomycin + test compound 30 min, read-out: HC50 (concentration that would produce 50% hair cell survival); for Emax at 8.3 µM: maximum observed @ 8.3 μM test compound; for Emax at 2.8 µM: maximum observed @ 2.8 μM test compound
Protocol: Zebrafish are bred and newly fertilized embryos are collected the week prior and raised at 28.5° C. in petri dishes containing embryo medium. Newly hatched free-swimming larvae are fed paramecium and dry fish food at 4 days post fertilization (dpf) with lights on. For treatment, fish 5-7 dpf are transferred to cell culture baskets and place within a well of a 6-well plate containing 7 milliliters of 1× embryo medium. Typically, tests are done with ten fish per basket but work well with up to 50 fish. All treatment and wash volumes are 7 milliliters. • 1. Fish are pre-treated with test compound for 1 hour. […] Treat with 200 micromolar neomycin (neomycin sulfate, Sigma, St. Louis, Mo., catalog #N1142)+test compound for 30 minutes. • 3. Rinse fish briefly 4 times in embryo medium and add 700 μl of 0.05% DASPEI (2-{4-(dimethylamino)styryl}-N-ethylpyridinium iodide, Molecular Probes, Eugene, Oreg.) and allowed to stain for 15 minutes. • 4. Rinse twice in embryo medium and add 350 μl MS222 (0.55 ug/ml final concentration, 3-aminobenzoic acid ethyl ester, methansulfoneate salt, Sigma, St. Louis, Mo.) to anesthetize. • 5. View with epifluorescence dissecting microscope equipped with a DAPSEI filter set (excitation […], Chroma Technologies, Brattleboro, Vt.). For assessment of initial dose response curves, fish are transferred to wide depression slide with wide-bore pipette. The DASPEI staining of ten neuromasts (SO1, SO2, IO1, IO2, IO3, IO4, M2, MI1, MI2 and O2) on one side of an animal are evaluated. Each neuromast is scored for presence of DASPEI staining (score=2), reduced DASPEI staining (score=1) or absence of DASPEI staining (score=0). Total scores for an animal are tabulated, to give a composite score that can range from 0 to 20. Average scores and standard deviations are calculated for animals in each treatment group. Scores are normalized to control group (vehicle only, no drug, no neomycin) and expressed as % hair cell survival. HCmax is the maximum protection (hair cell survival) observed. • 6. If at least 50% hair cells survive, the HC50 (concentration that would produce 50% hair cell survival) is calculated as a linear extrapolation from the nearest concentrations of protective drug that produce hair cell survival below and above 50%. If less than 50% hair cells survive, the HC50 is not determined. 1× embryo media (standard lab EM): • 1 mM MgSO4, • 0.15 mM KH2PO4, • 0.05 mM Na2HPO4, • 1 mM CaCl2, • 0.5 mM KCl • 15 mM NaCl • 0.7 mM NaHCO3

[1] = 200 micromolar neomycin, read-out: Max HC Protection (HCmax, % hair cell survival)

| SMILES | Emax at 25 µM [1] [%] | EC50 [µM] | Emax at 8.3 µM [1] [%] | Emax at 0.9 µM (maximum observed @ 0.9 μM test compound, 200 micromolar neomycin, read-out: Max HC Protection (HCmax, % hair cell survival)) [%] | Emax at 2.8 µM [1] [%] |
| --- | --- | --- | --- | --- | --- |
| CCN1CCc2c(sc(NC(=O)Nc3ccc(Cl)s3)c2C(N)=O)C1 [Example 94, 2-[3-(5-Chlorothiophen-2-yl)ureido]-6-ethyl-4,5,6,7-tetrahydrothieno[2,3-c]pyridine-3-carboxamide hydrochloride] | 69 | > 10 |  |  |  |
| NC(=O)c1c(NC(=O)Nc2ccc(Cl)cc2)sc2c1CCN(CC1CCCC1)C2 [Example 17, 2-[3-(4-Chlorophenyl)ureido]-6-(cyclopentylmethyl)-4,5,6,7-tetrahydrothieno[2,3-c]pyridine-3-carboxamide hydrochloride] |  | 1 to 10 | 65 |  |  |
| CCN1CCc2c(sc(NC(=O)Nc3ccc(Cl)cc3Cl)c2C(N)=O)C1 [Example 229, 2-{[(2,4-dichlorophenyl)carbamoyl]amino}-6-ethyl-4H,5H,6H,7H-thieno[2,3-c]pyridine-3-carboxamide] | 54 | > 10 |  |  |  |
| COC(=O)C(C)(C)CN1C2CCC1c1sc(NC(=O)Nc3ccc(Cl)cc3)c(C(N)=O)c1C2 (racemic) [Example 134, (+/−)-Methyl 3-{3-carbamoyl-2-[3-(4-chlorophenyl)ureido]-5,6,7,8-tetrahydro-4H-5,8-epiminocyclohepta[b]thiophen-9-yl}-2,2-dimethylpropanoate hydrochloride] |  |  |  | 11 |  |
| COC(=O)CCN1CCc2c(sc(NC(=O)Nc3ccc(Cl)cc3)c2C(N)=O)C1 [Example 55, Methyl 3-{3-carbamoyl-2-[3-(4-chlorophenyl)ureido]-4,5-dihydrothieno[2,3-c]pyridin-6(7H)-yl}propanoate] |  |  |  |  | 17 |
| CC(C)(O)C[N+]1(C)CCc2c(sc(NC(=O)Nc3ccc(Cl)cc3)c2C(N)=O)C1 (stereo not shown) [Example 202, 3-Carbamoyl-2-[3-(4-chlorophenyl)ureido]-6-(2-hydroxy-2-methylpropyl)-6-methyl-4,5,6,7-tetrahydrothieno[2,3-c]pyridin-6-ium iodide] |  | < 1 | 85 |  |  |
| CC(C)(C)CN1CCc2c(sc(NC(=O)Nc3ccc(Cl)c4ccccc34)c2C(N)=O)C1 [Example 41, 2-[3-(4-Chloronaphthalen-1-yl)ureido]-6-neopentyl-4,5,6,7-tetrahydrothieno[2,3-c]pyridine-3-carboxamide hydrochloride] |  |  | 39 |  |  |
| CC(C)(C)OC(=O)CCC[N+]1(C)CCc2c(sc(NC(=O)Nc3ccc(Cl)cc3)c2C(N)=O)C1 (stereo not shown) [Example 154, 6-(4-tert-Butoxy-4-oxobutyl)-3-carbamoyl-2-[3-(4-chlorophenyl)ureido]-6-methyl-4,5,6,7-tetrahydrothieno[2,3-c]pyridin-6-ium trifluoroacetate] |  | < 1 |  |  | 96 |
| CCN1CCc2c(sc(NC(=O)Nc3cccc(Cl)c3Cl)c2C(N)=O)C1 [Example 74, 2-[3-(2,3-Dichlorophenyl)ureido]-6-ethyl-4,5,6,7-tetrahydrothieno[2,3-c]pyridine-3-carboxamide hydrochloride] | 54 | > 10 |  |  |  |
| CCOC(=O)CC[N+]1(C)CCc2c(sc(NC(=O)Nc3ccc(Cl)cc3)c2C(N)=O)C1 (stereo not shown) [Example 160, 3-Carbamoyl-2-[3-(4-chlorophenyl)ureido]-6-(3-ethoxy-3-oxopropyl)-6-methyl-4,5,6,7-tetrahydrothieno[2,3-c]pyridin-6-ium chloride iodide] |  | 1 to 10 |  |  | 70 |
| CC(C)NC(=O)CCN1CCc2c(sc(NC(=O)Nc3ccc(Cl)cc3)c2C(N)=O)C1 [Example 57, 2-[3-(4-Chlorophenyl)ureido]-6-[3-(isopropylamino)-3-oxopropyl]-4,5,6,7-tetrahydrothieno[2,3-c]pyridine-3-carboxamide hydrochloride] |  | 1 to 10 |  |  | 50 |
| NC(=O)c1c(NC(=O)Nc2ccc(Cl)cc2)sc2c1CCC(N1CCC1)C2 (stereo not shown) [Example 43, 6-(Azetidin-1-yl)-2-[3-(4-chlorophenyl)ureido]-4,5,6,7-tetrahydrobenzo[b]thiophene-3-carboxamide hydrochloride] | 93 | 1 to 10 |  |  |  |
| CC(C)(C)OC(=O)N1CCC(N2CCc3c(sc(NC(=O)Nc4ccc(Cl)cc4)c3C(N)=O)C2)C1 (stereo not shown) [Example 4, tert-Butyl 3-{3-carbamoyl-2-[3-(4-chlorophenyl)ureido]-4,5-dihydrothieno[2,3-c]pyridin-6(7H)-yl}pyrrolidine-1-carboxylate] |  | 1 to 10 | 56 |  |  |
| C[N+]1(CC23CC4CC(CC(C4)C2)C3)CCc2c(sc(NC(=O)Nc3ccc(Cl)cc3)c2C(N)=O)C1 (stereo not shown) [Example 197, 6-[(3r,5r,7r)-Adamantan-1-ylmethyl]-3-carbamoyl-2-[3-(4-chlorophenyl)ureido]-6-methyl-4,5,6,7-tetrahydrothieno[2,3-c]pyridin-6-ium chloride] |  | < 1 |  |  | 93 |
| CC(C)CN1CCc2c(sc(NC(=O)Nc3ccc(Cl)c4ccccc34)c2C(N)=O)C1 [Example 39, 2-[3-(4-Chloronaphthalen-1-yl)ureido]-6-isobutyl-4,5,6,7-tetrahydrothieno[2,3-c]pyridine-3-carboxamide hydrochloride] | 56 | > 10 |  |  |  |
| CCN1CCc2c(sc(NC(=O)Nc3ccc(Cc4ccccc4)cc3)c2C(N)=O)C1 [Example 226, 2-{[(4-benzylphenyl)carbamoyl]amino}-6-ethyl-4H,5H,6H,7H-thieno[2,3-c]pyridine-3-carboxamide] |  | 1 to 10 | 68 |  |  |
| CCN1CCc2c(sc(NC(=O)Nc3ccc(OC)cc3)c2C(N)=O)C1 [Example 230, 6-ethyl-2-{[(4-methoxyphenyl)carbamoyl]amino}-4H,5H,6H,7H-thieno[2,3-c]pyridine-3-carboxamide] | 48 |  |  |  |  |
| CCN1CCc2c(sc(NC(=O)Nc3ccc(CC(=O)OC(C)(C)C)cc3)c2C(N)=O)C1 [Example 30, tert-Butyl 2-{4-[3-(3-carbamoyl-6-ethyl-4,5,6,7-tetrahydrothieno[2,3-c]pyridin-2-yl)ureido]phenyl}acetate] | 58 | 1 to 10 |  |  |  |
| CC(C)(C)OC(=O)CCCCCN1CCc2c(sc(NC(=O)Nc3ccc(Cl)cc3)c2C(N)=O)C1 [Example 18, tert-Butyl 6-{3-carbamoyl-2-[3-(4-chlorophenyl)ureido]-4,5-dihydrothieno[2,3-c]pyridin-6(7H)-yl}hexanoate] |  | < 1 |  |  | 64 |
| CC(C)(C)OC(=O)NCCCN1CCc2c(sc(NC(=O)Nc3ccc(C(=O)c4ccccc4)cc3)c2C(N)=O)C1 [Example 208, tert-Butyl N-[3-(2-{[(4-benzoylphenyl)carbamoyl]amino}-3-carbamoyl-4H,5H,6H,7H-thieno[2,3-c]pyridin-6-yl)propyl]carbamate] |  | 1 to 10 |  |  | 56 |
| C[N+]1(CCO)CCc2c(sc(NC(=O)Nc3ccc(Cl)cc3)c2C(N)=O)C1 (stereo not shown) [Example 144, 3-Carbamoyl-2-[3-(4-chlorophenyl)ureido]-6-(2-hydroxyethyl)-6-methyl-4,5,6,7-tetrahydrothieno[2,3-c]pyridin-6-ium iodide] | 78 | 1 to 10 |  |  |  |
| CC1(CN2CCc3c(sc(NC(=O)Nc4ccc(Cl)cc4)c3C(N)=O)C2)CCC1 [Example 24, 2-[3-(4-Chlorophenyl)ureido]-6-[(1-methylcyclobutyl)methyl]-4,5,6,7-tetrahydrothieno[2,3-c]pyridine-3-carboxamide trifluoroacetate] |  | 1 to 10 |  |  | 54 |
| CCN1CCc2c(sc(NC(=O)N(C)c3ccc(Cl)cc3)c2C(N)=O)C1 [Example 106, 2-[3-(4-chlorophenyl)-3-methylureido]-6-ethyl-4,5,6,7-tetrahydrothieno[2,3-c]pyridine-3-carboxamide hydrochloride] | 23 |  |  |  |  |
| C[N+]1(CCC(N)=O)CCc2c(sc(NC(=O)Nc3ccc(Cl)cc3)c2C(N)=O)C1 (stereo not shown) [Example 157, 6-(3-Amino-3-oxopropyl)-3-carbamoyl-2-[3-(4-chlorophenyl)ureido]-6-methyl-4,5,6,7-tetrahydrothieno[2,3-c]pyridin-6-ium iodide] | 94 | 1 to 10 |  |  |  |
